Where two headings read alike, the source gives them in different places.
Assays:
OAT1 = biological target: T1, OAT1 (Homo sapiens, UniProt Q4U2R8); assay: OAT1 substrate determination in HEK293 cells; assay type: in vitro ADME; settings: for Uptake ratio: OAT1 vs control cells; for Uptake (Average ± SD), OAT1: OAT1-expressing HEK293 cells; for recovery at 10 μM: human
T1 sequence (Q4U2R8 1-563): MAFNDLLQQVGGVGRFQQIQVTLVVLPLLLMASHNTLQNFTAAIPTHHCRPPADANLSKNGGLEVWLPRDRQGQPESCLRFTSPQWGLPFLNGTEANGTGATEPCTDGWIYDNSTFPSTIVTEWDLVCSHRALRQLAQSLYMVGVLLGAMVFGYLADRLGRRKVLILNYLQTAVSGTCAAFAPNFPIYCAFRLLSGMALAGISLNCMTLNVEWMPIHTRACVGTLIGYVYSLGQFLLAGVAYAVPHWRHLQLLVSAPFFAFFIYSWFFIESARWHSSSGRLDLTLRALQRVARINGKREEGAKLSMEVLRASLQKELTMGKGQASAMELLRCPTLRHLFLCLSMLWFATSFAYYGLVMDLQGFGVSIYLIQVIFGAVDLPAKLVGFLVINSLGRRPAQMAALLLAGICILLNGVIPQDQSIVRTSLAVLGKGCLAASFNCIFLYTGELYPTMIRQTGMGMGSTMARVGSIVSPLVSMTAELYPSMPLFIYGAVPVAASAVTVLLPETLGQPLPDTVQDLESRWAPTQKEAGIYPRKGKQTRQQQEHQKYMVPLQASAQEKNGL

OAT3 [1] = biological target: T2, OAT3 (Homo sapiens, UniProt Q8TCC7); assay: OAT3 substrate determination in HEK293 cells; assay type: in vitro ADME; settings: for Uptake ratio: OAT3 vs control cells; for Uptake (Average ± SD), OAT3: OAT3-expressing HEK293 cells; for recovery at 10 μM: human
T2 sequence (Q8TCC7 1-542): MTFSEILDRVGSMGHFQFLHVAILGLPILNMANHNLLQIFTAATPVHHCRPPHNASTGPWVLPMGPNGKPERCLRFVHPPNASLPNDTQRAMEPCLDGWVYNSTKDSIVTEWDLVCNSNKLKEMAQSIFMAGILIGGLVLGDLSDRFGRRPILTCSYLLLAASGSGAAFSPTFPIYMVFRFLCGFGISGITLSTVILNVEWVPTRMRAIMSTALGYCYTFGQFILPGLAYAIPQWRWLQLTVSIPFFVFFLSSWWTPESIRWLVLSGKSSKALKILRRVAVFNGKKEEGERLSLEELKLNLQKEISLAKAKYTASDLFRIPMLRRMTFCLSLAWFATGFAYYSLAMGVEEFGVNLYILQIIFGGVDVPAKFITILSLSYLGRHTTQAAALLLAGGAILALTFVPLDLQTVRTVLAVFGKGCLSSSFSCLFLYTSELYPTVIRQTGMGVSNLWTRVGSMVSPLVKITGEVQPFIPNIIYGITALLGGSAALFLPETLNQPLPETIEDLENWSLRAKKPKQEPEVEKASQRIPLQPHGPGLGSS

[2] = low plasma concentrations (1.0 to 2.0 mg/100 mL); cited from earlier work
OAT3 [3] = biological target: T2, OAT3; assay: OAT3 positive-control inhibition, [3H]-Estrone-3-sulfate probe substrate uptake in HEK293 cells; assay type: in vitro ADME; settings: [3H]-Estrone-3-sulfate (50 nM) probe, inhibitor 100 μM
[4] = dichlorphenamide 10 μM + probenecid 100 μM, 1 min
[5] = dichlorphenamide 10 μM + probenecid 100 μM, 3 min
[6] = dichlorphenamide 10 μM + probenecid 100 μM, 10 min
[7] = dichlorphenamide 10 μM + probenecid 100 μM, control HEK293 cells, 1 min
[8] = dichlorphenamide 10 μM + probenecid 100 μM, control HEK293 cells, 3 min
[9] = dichlorphenamide 10 μM + probenecid 100 μM, control HEK293 cells, 10 min
[10] = dichlorphenamide 10 μM, incubation 1 min
[11] = dichlorphenamide 10 μM, incubation 3 min
[12] = dichlorphenamide 10 μM, incubation 10 min

NS(=O)(=O)c1cc(Cl)c(Cl)c(S(N)(=O)=O)c1 [Dichlorphenamide, 4,5-dichloro-1,3-benzenedisulfonamide]
Substrate of OAT1 (conclusion from Tables 1 and 2) (OAT1; HEK293 cells): is a substrate of OAT1 | Uptake ratio (OAT1; [4]): 1.29 | Uptake ratio (OAT1; [5]): 1.11 | Uptake ratio (OAT1; [6]): 1.01 | Uptake ratio (OAT1; dichlorphenamide 10 μM, 1 min): 2.41 | Uptake ratio (OAT1; dichlorphenamide 10 μM, 3 min): 2.39 | Uptake ratio (OAT1; dichlorphenamide 10 μM, 10 min): 2.23 | Uptake (Average ± SD), OAT1 (OAT1; [4]): 54.4 ± 2.7 pmol/mg protein | Uptake (Average ± SD), OAT1 (OAT1; [5]): 135 ± 6 pmol/mg protein | Uptake (Average ± SD), OAT1 (OAT1; [6]): 286 ± 17 pmol/mg protein | Uptake (Average ± SD), Control (OAT1; [7]): 42.2 ± 2.4 pmol/mg protein | Uptake (Average ± SD), Control (OAT1; [8]): 121 ± 8 pmol/mg protein | Uptake (Average ± SD), Control (OAT1; [9]): 284 ± 19 pmol/mg protein | Uptake (Average ± SD), OAT1 (OAT1; [10]): 109 ± 2 pmol/mg protein | Uptake (Average ± SD), OAT1 (OAT1; [11]): 294 ± 14 pmol/mg protein | Uptake (Average ± SD), OAT1 (OAT1; [12]): 591 ± 11 pmol/mg protein | Uptake (Average ± SD), Control (OAT1; dichlorphenamide 10 μM, control HEK293 cells (vector only), incubation 1 min): 45.4 ± 0.4 pmol/mg protein | Uptake (Average ± SD), Control (OAT1; dichlorphenamide 10 μM, control HEK293 cells (vector only), incubation 3 min): 123 ± 6 pmol/mg protein | Uptake (Average ± SD), Control (OAT1; dichlorphenamide 10 μM, control HEK293 cells (vector only), incubation 10 min): 265 ± 8 pmol/mg protein | recovery at 10 μM (OAT1; HEK293 cells expressing OAT1, pH 7.4, read-out: Recovery, OAT1): 98.5% | recovery at 10 μM (OAT1; control HEK293 cells (transfected with vector only), pH 7.4, read-out: Recovery, Control): 95.3% | Substrate of OAT3 (conclusion from Tables 3 and 4) (OAT3 [1]; HEK293 cells): is a substrate of OAT3 | Uptake ratio (OAT3 [1]; [4]): 0.987 | Uptake ratio (OAT3 [1]; [5]): 1.00 | Uptake ratio (OAT3 [1]; [6]): 1.24 | Uptake ratio (OAT3 [1]; dichlorphenamide 10 μM, 1 min): 2.26 | Uptake ratio (OAT3 [1]; dichlorphenamide 10 μM, 3 min): 2.64 | Uptake ratio (OAT3 [1]; dichlorphenamide 10 μM, 10 min): 2.75 | Uptake (Average ± SD), OAT3 (OAT3 [1]; [4]): 123 ± 7 pmol/mg protein | Uptake (Average ± SD), OAT3 (OAT3 [1]; [5]): 126 ± 18 pmol/mg protein | Uptake (Average ± SD), OAT3 (OAT3 [1]; [6]): 177 ± 16 pmol/mg protein | Uptake (Average ± SD), Control (OAT3 [1]; [7]): 124 ± 13 pmol/mg protein | Uptake (Average ± SD), Control (OAT3 [1]; [8]): 125 ± 5 pmol/mg protein | Uptake (Average ± SD), Control (OAT3 [1]; [9]): 143 ± 41 pmol/mg protein | Uptake (Average ± SD), OAT3 (OAT3 [1]; [10]): 333 ± 24 pmol/mg protein | Uptake (Average ± SD), OAT3 (OAT3 [1]; [11]): 311 ± 29 pmol/mg protein | Uptake (Average ± SD), OAT3 (OAT3 [1]; [12]): 463 ± 27 pmol/mg protein | Uptake (Average ± SD), Control (OAT3 [1]; dichlorphenamide 10 μM, control HEK293 cells, incubation 1 min): 147 ± 47 pmol/mg protein | Uptake (Average ± SD), Control (OAT3 [1]; dichlorphenamide 10 μM, control HEK293 cells, incubation 3 min): 118 ± 3 pmol/mg protein | Uptake (Average ± SD), Control (OAT3 [1]; dichlorphenamide 10 μM, control HEK293 cells, incubation 10 min): 169 ± 9 pmol/mg protein | recovery at 10 μM (OAT3 [1]; HEK293 cells expressing OAT3, pH 7.4, read-out: Recovery, OAT3): 77.9% | recovery at 10 μM (OAT3 [1]; control HEK293 cells, pH 7.4, read-out: Recovery, Control): 68.8%

Nc1ccc(C(=O)NCC(=O)O)cc1 [aminohippurate, p-aminohippuric acid]
Fraction cleared by the kidneys from the renal blood stream in a single circulation (average) [2]: 90%

CCCN(CCC)S(=O)(=O)c1ccc(C(=O)O)cc1 [Probenecid]
Background corrected uptake rate (OAT3 [3]): 0.0184 pmol/mg/min | Uptake (Average ± SD), OAT3 (OAT3 [3]; OAT3-expressing HEK293 cells): 0.104 ± 0.006 pmol/mg protein | Uptake (Average ± SD), Control (OAT3 [3]; control HEK293 cells): 0.0670 ± 0.0124 pmol/mg protein | activity at 100 μM (OAT3 [3]; human, HEK293 cells expressing OAT3 and control cells, pH 7.4, probe [3H]-Estrone-3-sulfate (50 nM), relative to solvent control, read-out: Percent of control): 3.2%
